Series [1] is described as follows: Catalytic decomposition of peroxynitrite (PN), stopped-flow kinetics (Table 1). In kind it is biochemical. The method, then: SOD activity (enzyme-like catalytic decomposition of superoxide anion radical) of the corroles 1C-Fe, 6C-Fe, 1C-Mn, 1C-Cu, 2C-Mn and 3C-Mn was examined via the cytochrome C assay. The catalytic rate constants for decomposition of peroxynitrite (PN) by the newly prepared iron corrole 6C-Fe and manganese corrole 3C-Mn were determined via stopped-flow kinetics as previously described for corroles 1C-Fe, 1C-Mn, and 2C-Mn (Mahammed and Gross, 2006; Gershman et al., 2007). These tests are performed in order to estimate how electronic and structural variables affect reactivity, which is a crucial factor for design of new complexes.

A short description of series [2]: Rescuing DMSO from damage attributed to the hydroxyl radical (Fenton reaction). The conditions noted are these: for Yield (%) or amount of product (Formaldehyde): substrate DMSO; for preventing oxidative damage / protection against metal-induced oxidation of substrates: summary of Table 3. Format: biochemical. From the text:
Corrole complexes were examined with respect to their efficiency of rescuing DMSO from damage attributed to the hydroxyl radical, formed via the Fenton reaction that also involves superoxide anion radical and hydrogen […]. It also mimics reaction occurring in biological systems that are exposed to metal toxicity, the situation that occurs in diseases caused by brain iron accumulation.

In a further series the test system is INS-1E cells. As to the kind of experiment: Protection of INS-1E beta cells against H2O2 toxicity. Format: cell-based, rat. Particulars: 20 and 50 μM, 30 min before increasing H2O2 concentrations, 24 h. The method, then: Two insulin-secreting beta cell lines, rat insulinoma (INS-1E) and RIN-m cells, were used to examine the protective effect of corrole 1C-Fe. The cells were cultured at 37° C., in a humid 5% CO2, 95% air environment in regular RPMI-1640 medium (Invitrogen) supplemented with 5% fetal calf serum (FCS).
After 2 days of culture, INS-1E cells (5×10^4 cells/well in 96-well plates) were treated with corrole 1C-Fe (20 and 50 μM) added 30 minutes prior to treatment with increasing concentrations of H2O2 and then further incubated for 24 h.

The next series concerns SH-SY5Y cells. In kind it is cell-based. The conditions noted are these: for protection against 6-OHDA compared with porphyrins 1P-Fe and 2P-Mn / 6-OHDA-induced cytotoxicity (MTT, cell death ELISA) / cell mortality, morphology and apoptotic nuclei (GAP-43 immunofluorescence, TUNEL, DAPI): 20 μM; for protection against 6-OHDA compared with porphyrins 1P-Fe and 2P-Mn: 6-OHDA 40 μM, immunofluorescence; for 6-OHDA-induced cytotoxicity (MTT, cell death ELISA) / cell mortality, morphology and apoptotic nuclei (GAP-43 immunofluorescence, TUNEL, DAPI): 30 min before 6-OHDA (40 μM). The method, then:
SH-SY5Y cells were cultured in DMEM-Eagle/F-12(HAM) (1:1) containing 10% FCS. Cells were resuspended in medium containing 2% FCS, seeded in microtiter plates (96 wells) and allowed to attach for 24 h. To examine the neuroprotective effect, cells were pretreated for 30 min with corroles 1C-Fe and 5C-Fe (1-20 μM), and were then exposed to 6-OHDA (60 μM) for further 24 h. For neurorescue assessment, SH-SY5Y cells were first treated with 6-OHDA (60 μM) for 0.5 h, 1.5 h, 3 h and 6 h followed by the addition of compounds 1C-Fe and 5C-Fe (10 μM) for further 24 h.
SH-SY5Y cells were pretreated with or without corroles 1C-Fe, 2C-Mn and 3C-Mn and porphyrins 1P-Fe and 2P-Mn (20 μM), 30 min before exposure to 6-OHDA (40 μM) for a subsequent 24 h period. Cell viability was evaluated by MTT test and cell death was assessed using the apoptotic cell death detection ELISA kit. For neurorescue, SH-SY5Y cells were first exposed to 40 μM 6-OHDA for 0.5. 1, 1.5 and 3 h, followed by the addition of the compounds 1C-Fe, 2C-Mn and 3C-Mn (20 μM) and incubated for further 24 h. Growth-associated protein (GAP-43) was detected by fluorescence microscopy using a specific primary antibody. Apoptotic nuclei were determined by terminal deoxynucleotidyl transferase-mediated UTP-digoxigenin nick end labeling analysis. 4′,6-Diamidino-2-phenylnidole (DAPI) staining was applied for nuclear labeling. […]
On the technique in general: In an ELISA, binding on a coated surface is turned into a signal by an enzyme label.

A further series deals with NSC-34 G93A cells. Briefly: Cell culture model of familial ALS, NSC-34 cells expressing mutant G93A-SOD1. Format: cell-based, mouse. Particulars: 48 h induction; even at a concentration as low as 0.5 μM. The method, then:
Mutant-superoxide dismutase (G93A-SOD1) is associated with familial amyotrophic lateral sclerosis (FALS). A cell culture model of FALS was implemented by stably transfecting mouse motoneuronal NSC-34 cells or SH-SY5Y cells, to express mutant G93A-SOD1 at levels approximating those seen in the human disease. NSC-34 cells or SH-SY5Y cells were incubated in Dulbecco's modified Eagle's/F-12 medium supplemented with 10% FCS tetracycline-free (FCS Tet-free; Clontech), at 37° C. in an atmosphere of 5% CO2 in air. These cell lines are stably transfected with the pTet-ON plasmid (Clontech, Palo Alto, Calif.) coding for the reverse tetracycline controlled transactivator (rtTA). Induction of mutant SOD1 expression was obtained by shifting nonconfluent cultures into growth medium containing 1% N2 supplement (Invitrogen, Carlsbad, Calif.) and […] doxocyclin for 48 h in the presence or absence of corrole 1C-Fe and 5C-Fe.

The target of the next series is transferrin (Homo sapiens, UniProt P02787). As to the kind of experiment: Binding of corrole complexes to transferrin. The conditions noted are these: preliminary experiments. The source says: Issues regarding biodistribution, transport mechanisms, accumulation in specific organs, and the eventual elimination of administered compounds are among the prime concerns when it comes to real life utilization of potential drugs. This can be addressed by several and quite different means, including in vitro, in vivo and ex-vivo examinations. One way to predict distribution is via examination of the binding of the corroles to circulating proteins that might act as transporters, similar to experiment performed previously by the inventors with metal complexes of corrole 1C (Scheme 1), which spontaneously form tightly bound non-covalent bioconjugates with HDL (Haber et al., 2007), albumin (Mahammed et al., 2004), and transferrin (Haber and Gross. 2007) (listed in increasing order of affinity), as well as with semi-synthetic proteins (Agadjanian et al., 2006). […] A more direct approach relies on the strong fluorescence of corroles that are not chelated by transition metals (no metal such as in corroles 1C and 2C, or using corrole Ga/Al complexes such as 1C-Ga). This feature is used for testing cell entry via confocal microscopy (Agadjanian et al., 2006), without the need of attaching a fluorescent tag. Furthermore, it may even be used for whole animal imaging purposes, as shown in Example 4 hereinabove. […]
transferrin, sequence (P02787 20-698, species assumed): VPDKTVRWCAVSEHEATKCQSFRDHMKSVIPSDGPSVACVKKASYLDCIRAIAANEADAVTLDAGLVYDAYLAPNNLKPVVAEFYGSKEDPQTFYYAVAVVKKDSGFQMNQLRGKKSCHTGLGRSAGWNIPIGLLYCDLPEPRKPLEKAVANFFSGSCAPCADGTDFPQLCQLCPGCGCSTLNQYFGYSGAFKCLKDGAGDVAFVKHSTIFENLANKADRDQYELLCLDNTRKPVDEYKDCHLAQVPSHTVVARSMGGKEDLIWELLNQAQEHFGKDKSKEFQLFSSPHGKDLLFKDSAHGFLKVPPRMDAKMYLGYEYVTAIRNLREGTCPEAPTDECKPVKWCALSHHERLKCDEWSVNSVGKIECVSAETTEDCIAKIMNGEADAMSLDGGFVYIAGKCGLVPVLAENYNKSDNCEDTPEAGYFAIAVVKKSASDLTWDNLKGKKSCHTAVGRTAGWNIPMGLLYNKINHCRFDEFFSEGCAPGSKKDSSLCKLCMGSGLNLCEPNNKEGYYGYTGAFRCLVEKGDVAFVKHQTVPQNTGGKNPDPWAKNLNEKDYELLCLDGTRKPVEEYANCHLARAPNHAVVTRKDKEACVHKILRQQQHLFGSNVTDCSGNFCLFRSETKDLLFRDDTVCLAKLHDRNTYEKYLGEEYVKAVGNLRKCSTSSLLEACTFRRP

Setting [3] is: CuSO4/ascorbate, no additive 44 μM.
The mark [4] stands for this setting: CuSO4/glutathione, no additive 11 μM.

As for `O=S(=O)(O)c1cc2[n]3c1C(c1c(F)c(F)c(F)c(F)c1F)=C1C=CC4=[N+]1[Fe-]31[n]3c(cc(S(=O)(=O)O)c3-2)C(c2c(F)c(F)c(F)c(F)c2F)=c2ccc([n]21)=C4c1c(F)c(F)c(F)c(F)c1F` (stereo not shown) [1C-Fe, 2,17-bis(sulfonato)-5,10,15-tris(pentafluorophenyl)-corrolato iron(III)], the “kcat, catalytic rate constant for decomposition of PN” value in series [1] stood at 2e+06 M⁻¹ s⁻¹. Also, the “Yield (%) or amount of product (Formaldehyde)” value in series [2] (setting [3]) and in series [2] (setting [4]) was 0 µM throughout. The “preventing oxidative damage / protection against metal-induced oxidation of substrates” value in series [2] was “very potent in preventing the oxidative damage”. Moreover, the “protective effect against H2O2 toxicity” value in the series on INS-1E cells was “significant protective effect”. Besides, in the series on SH-SY5Y cells, the “protection against 6-OHDA compared with porphyrins 1P-Fe and 2P-Mn” value was “remarkable superiority over the porphyrins”. Also, in the series with SH-SY5Y cells (24 h), the “6-OHDA-induced cytotoxicity (MTT, cell death ELISA)” value is on record as “significantly attenuated 6-OHDA-induced cytotoxicity”. Moreover, in the series on SH-SY5Y cells (24 h), the “cell mortality, morphology and apoptotic nuclei (GAP-43 immunofluorescence, TUNEL, DAPI)” value is “significantly attenuated 6-OHDA-induced cell mortality, improved cell morphology and reduced the number of apoptotic nuclei”. The “neuroprotective effect against 6-OHDA-induced toxicity” value in the series with SH-SY5Y cells (1-20 μM, 30 min before 6-OHDA (60 μM), 24 h) was “dose-dependent neuroprotective effect”. Besides, in the series on SH-SY5Y cells (6-OHDA (60 μM) for 0.5, 1.5, 3 and 6 h, then 10 μM, 24 h), the “neurorescue after 6-OHDA insult” value was “instigated neurorescue”. For the same compound, the “cell viability of induced mutant cells” value in the series with NSC-34 G93A cells is on record as “significantly improved cell viability”.

As for `C[n+]1ccc(C2=C3C=CC4=[N+]3[Mn-]35[n]6c2ccc6-c2ccc([n]23)C(c2cc[n+](C)cc2)=c2ccc([n]25)=C4c2c(F)c(F)c(F)c(F)c2F)cc1.[I-].[I-]` (stereo not shown) [2C-Mn, 5,15-bis(4-N-methyl-pyridilium)-10-pentafluorophenyl-corrolato manganese(III) diiodide salt], the “kcat, catalytic rate constant for decomposition of PN” value in series [1] stood at 400000 M⁻¹ s⁻¹. Further, the “Yield (%) or amount of product (Formaldehyde)” value came out at 7 µM in series [2] (setting [3]) and 5 µM in series [2] (setting [4]). Also, the “preventing oxidative damage / protection against metal-induced oxidation of substrates” value in series [2] is given as “protect better than corrole 1C-Mn”. The “protection against 6-OHDA compared with porphyrins 1P-Fe and 2P-Mn” value in the series on SH-SY5Y cells is listed as “remarkable superiority over the porphyrins”. Besides, the “6-OHDA-induced cytotoxicity (MTT, cell death ELISA)” value with SH-SY5Y cells (24 h) is on record as “significantly attenuated 6-OHDA-induced cytotoxicity”. Besides, in the series with SH-SY5Y cells (24 h), the “cell mortality, morphology and apoptotic nuclei (GAP-43 immunofluorescence, TUNEL, DAPI)” value is “significantly attenuated 6-OHDA-induced cell mortality, improved cell morphology and reduced the number of apoptotic nuclei”. At transferrin, the binding to transferrin entry is “still do so for transferrin”.

The record behind these values is patent US20140045809A1, “CORROLES FOR NEUROPROTECTION AND NEURORESCUE” (priority 2008, published 2014).
